Assay results from ChEMBL document CHEMBL4340516, “Synthesis and antitumor activity of novel steroidal imidazolium salt derivatives” (Eur J Med Chem, 2019).
One block for each molecule: values may come before it.

What was measured:
SMMC-7721 [1] = assay: Cell cycle arrest in human SMMC7721 cells assessed as accumulation of cells at G0/G1 phase at 0.5 uM after 24 hrs by propidium iodide staining-based flow cytometric analysis (reference value: 62.58 +/- 0.35%); type: functional
SMMC-7721 [2] = assay: Cell cycle arrest in human SMMC7721 cells assessed as accumulation of cells at G2/M phase at 4 uM after 24 hrs by propidium iodide staining-based flow cytometric analysis (reference value: 8.72 +/- 0.42%); type: functional
SMMC-7721 [3] = assay: Cell cycle arrest in human SMMC7721 cells assessed as accumulation of cells at G0/G1 phase at 4 uM after 24 hrs by propidium iodide staining-based flow cytometric analysis (reference value: 62.58 +/- 0.35%); type: functional
SMMC-7721 [4] = assay: Cell cycle arrest in human SMMC7721 cells assessed as accumulation of cells at S phase at 4 uM after 24 hrs by propidium iodide staining-based flow cytometric analysis (reference value: 24.5 +/- 0.05%); type: functional
SMMC-7721 [5] = assay: Cell cycle arrest in human SMMC7721 cells assessed as accumulation of cells at G2/M phase at 1 uM after 24 hrs by propidium iodide staining-based flow cytometric analysis (reference value: 8.72 +/- 0.42%); type: functional
SMMC-7721 [6] = assay: Cell cycle arrest in human SMMC7721 cells assessed as accumulation of cells at G2/M phase at 0.5 uM after 24 hrs by propidium iodide staining-based flow cytometric analysis (reference value: 8.72 +/- 0.42%); type: functional
SMMC-7721 [7] = assay: Cell cycle arrest in human SMMC7721 cells assessed as accumulation of cells at G0/G1 phase at 2 uM after 24 hrs by propidium iodide staining-based flow cytometric analysis (reference value: 62.58 +/- 0.35%); type: functional
SMMC-7721 [8] = assay: Cell cycle arrest in human SMMC7721 cells assessed as accumulation of cells at sub-G1 phase at 1 uM after 24 hrs by propidium iodide staining-based flow cytometric analysis (reference value: 2.33 +/- 0.17%); type: functional
SMMC-7721 [9] = assay: Cell cycle arrest in human SMMC7721 cells assessed as accumulation of cells at sub-G1 phase at 0.5 uM after 24 hrs by propidium iodide staining-based flow cytometric analysis (reference value: 2.33 +/- 0.17%); type: functional
SMMC-7721 [10] = assay: Cell cycle arrest in human SMMC7721 cells assessed as accumulation of cells at S phase at 1 uM after 24 hrs by propidium iodide staining-based flow cytometric analysis (reference value: 24.5 +/- 0.05%); type: functional
SMMC-7721 [11] = assay: Induction of apoptosis in human SMMC7721 cells assessed as late apoptotic cells at 2 uM after 48 hrs by annexin V-FITC/propidium iodide staining based flow cytometry (reference value: 3.05%); type: functional
SMMC-7721 [12] = assay: Induction of apoptosis in human SMMC7721 cells assessed as late apoptotic cells at 1 uM after 48 hrs by annexin V-FITC/propidium iodide staining based flow cytometry (reference value: 3.05%); type: functional
SMMC-7721 [13] = assay: Cell cycle arrest in human SMMC7721 cells assessed as accumulation of cells at G0/G1 phase at 1 uM after 24 hrs by propidium iodide staining-based flow cytometric analysis (reference value: 62.58 +/- 0.35%); type: functional
SMMC-7721 [14] = assay: Induction of apoptosis in human SMMC7721 cells assessed as early apoptotic cells at 1 uM after 48 hrs by annexin V-FITC/propidium iodide staining based flow cytometry (reference value: 1.68%); type: functional
SMMC-7721 [15] = assay: Induction of apoptosis in human SMMC7721 cells assessed as viable cells at 2 uM after 48 hrs by annexin V-FITC/propidium iodide staining based flow cytometry (reference value: 94.7%); type: functional; details: SMMC-7721, 48 h, read-out: Activity
SMMC-7721 [16] = assay: Antiproliferative activity against human SMMC7721 cells assessed as reduction in cell viability incubated for 48 hrs by MTS assay; type: functional, cell-based; details: SMMC-7721, 48 h
HL-60 = assay: Antiproliferative activity against human HL60 cells assessed as reduction in cell viability incubated for 48 hrs by MTS assay; type: functional, cell-based; details: HL-60, 48 h
MCF7 = assay: Antiproliferative activity against human MCF7 cells assessed as reduction in cell viability incubated for 48 hrs by MTS assay; type: functional, cell-based; details: MCF7, 48 h
SW480 = assay: Antiproliferative activity against human SW480 cells assessed as reduction in cell viability incubated for 48 hrs by MTS assay; type: functional, cell-based; details: SW480, 48 h
SMMC-7721 [17] = assay: Cell cycle arrest in human SMMC7721 cells assessed as accumulation of cells at S phase at 0.5 uM after 24 hrs by propidium iodide staining-based flow cytometric analysis (reference value: 24.5 +/- 0.05%); type: functional
SMMC-7721 [18] = assay: Induction of apoptosis in human SMMC7721 cells assessed as early apoptotic cells at 2 uM after 48 hrs by annexin V-FITC/propidium iodide staining based flow cytometry (reference value: 1.68%); type: functional
SMMC-7721 [19] = assay: Induction of apoptosis in human SMMC7721 cells assessed as necrotic cells at 1 uM after 48 hrs by annexin V-FITC/propidium iodide staining based flow cytometry (reference value: 0.6%); type: functional
A549 = assay: Antiproliferative activity against human A549 cells assessed as reduction in cell viability incubated for 48 hrs by MTS assay; type: functional, cell-based; details: A549, 48 h
SMMC-7721 [20] = assay: Induction of apoptosis in human SMMC7721 cells assessed as viable cells at 1 uM after 48 hrs by annexin V-FITC/propidium iodide staining based flow cytometry (reference value: 94.7%); type: functional; details: SMMC-7721, 48 h, read-out: Activity
SMMC-7721 [21] = assay: Cell cycle arrest in human SMMC7721 cells assessed as accumulation of cells at G0/G1 phase after 24 hrs by propidium iodide staining-based flow cytometric analysis; type: functional
SMMC-7721 [22] = assay: Induction of apoptosis in human SMMC7721 cells assessed as necrotic cells at 2 uM after 48 hrs by annexin V-FITC/propidium iodide staining based flow cytometry (reference value: 0.6%); type: functional
SMMC-7721 [23] = assay: Potency index, ratio of DDP IC50 to compound IC50 for human SMMC7721 cells; type: functional

Structure (SMILES): Cc1cc2c(cc1C)[n+](Cc1ccccc1Br)cn2[C@@H]1CC[C@@]2(C)C(=CC[C@H]3[C@@H]4C[C@@H]5O[C@]6(CC[C@@H](C)CO6)[C@@H](C)[C@@H]5[C@@]4(C)CC[C@@H]32)C1.[Br-]
Activity (SMMC-7721 [1]): 73.61% | Activity (SMMC-7721 [2]): 4.67% | Activity (SMMC-7721 [3]): 78.1% | Activity (SMMC-7721 [4]): 14.22% | Activity (SMMC-7721 [5]): 4.67% | Activity (SMMC-7721 [6]): 3.49% | Activity (SMMC-7721 [7]): 73.61% | Activity (SMMC-7721 [8]): 2.43% | Activity (SMMC-7721 [9]): 2.4% | Activity (SMMC-7721 [10]): 14.22% | Activity (SMMC-7721 [11]): 64.9% | Activity (SMMC-7721 [12]): 18.7% | Activity (SMMC-7721 [13]): 78.1% | Activity (SMMC-7721 [14]): 0.373% | viability at 2 µM (SMMC-7721 [15]): 27.8% | IC50 (SMMC-7721 [16]): 0.44 µM | IC50 (HL-60): 0.49 µM | IC50 (MCF7): 0.73 µM | IC50 (SW480): 0.79 µM | Activity (SMMC-7721 [17]): 19.23% | Activity (SMMC-7721 [18]): 0.69% | Activity (SMMC-7721 [19]): 1.27% | IC50 (A549): 0.67 µM | viability at 1 µM (SMMC-7721 [20]): 79.6% | Activity (SMMC-7721 [21]): Dose-dependent effect | Activity (SMMC-7721 [22]): 6.62%

Structure (SMILES): CC(C)CCC[C@@H](C)[C@H]1CC[C@H]2[C@@H]3CC=C4C[C@@H](O)CC[C@]4(C)[C@H]3CC[C@]12C [CHOLESTEROL]
IC50 (SMMC-7721 [16]): > 20 µM | IC50 (HL-60): > 20 µM | IC50 (MCF7): > 20 µM | IC50 (SW480): > 20 µM | IC50 (A549): > 20 µM

Structure (SMILES): C[C@@H]1CC[C@@]2(OC1)O[C@H]1C[C@H]3[C@@H]4C[C@H](n5cc[n+](CC(=O)c6ccc7ccccc7c6)c5)[C@]56C[C@H]5CC[C@]6(C)[C@H]4CC[C@]3(C)[C@H]1[C@@H]2C
IC50 (SMMC-7721 [16]): 3.46 µM | IC50 (HL-60): 1.03 µM | IC50 (MCF7): 2.26 µM | IC50 (SW480): 4.01 µM | IC50 (A549): 7.27 µM

Now from value to molecule, other results behind:

IC50 (SMMC-7721 [16]): 0.21 µM | IC50 (HL-60): 0.34 µM | IC50 (MCF7): 2.14 µM | IC50 (SW480): 2.1 µM | IC50 (A549): 4.47 µM
Structure (SMILES): C[C@@H]1CC[C@@]2(OC1)O[C@H]1C[C@H]3[C@@H]4CC=C5C[C@H](n6c[n+](Cc7ccccc7Br)c7ccccc76)CC[C@]5(C)[C@H]4CC[C@]3(C)[C@H]1[C@@H]2C.[Br-]
Ratio IC50 (SMMC-7721 [23]): 54

IC50 (SMMC-7721 [16]): 10 µM | IC50 (HL-60): 8.33 µM | IC50 (MCF7): 19.7 µM | IC50 (SW480): > 20 µM | IC50 (A549): 10.3 µM
Structure (SMILES): C[C@@H]1CC[C@@]2(OC1)O[C@H]1C[C@H]3[C@@H]4C[C@H](n5ccnc5)[C@]56C[C@H]5CC[C@]6(C)[C@H]4CC[C@]3(C)[C@H]1[C@@H]2C
